Test results from patent US10258603B2 (priority 2014, dated 2019).

Biological target: T1, BRD4(BD1) (Homo sapiens, UniProt O60885)
T1 construct: 42-168 was cloned, expressed, and purified to; His; made in house
Assay: BRD4 AlphaLisa Binding Assay
From the text: IC50 Measurements for Inhibitors Using BRD4 AlphaLisa Binding Assay

Row | SMILES | IC50 [µM]
1 | Cn1cc(C(=O)N2CCC(Cc3cccnc3)CC2)c2cc[nH]c2c1=O [Example 46, 6-methyl-4-[4-(3-pyridylmethyl)piperidine-1-carbonyl]-1H-pyrrolo[2,3-c]pyridin-7-one] | 6.4
2 | Cn1cc(C(=O)N2CCC(n3cnc4ccccc43)CC2)c2cc[nH]c2c1=O [Example 50, 4-[4-(benzimidazol-1-yl)piperidine-1-carbonyl]-6-methyl-1H-pyrrolo[2,3-c]pyridin-7-one] | 16
3 | Cn1cc(C(=O)N2CCC(c3ccccn3)CC2)c2cc[nH]c2c1=O [Example 55, 6-methyl-4-[4-(2-pyridyl)piperidine-1-carbonyl]-1H-pyrrolo[2,3-c]pyridin-7-one] | 9.5
4 | Cn1cc(C(=O)N2CCC(C(F)(F)F)CC2)c2cc[nH]c2c1=O [Example 57, 6-methyl-4-[4-(trifluoromethyl)piperidine-1-carbonyl]-1H-pyrrolo[2,3-c]pyridin-7-one] | 4.1
5 | Cn1cc(C(=O)N2CCC(C#N)CC2)c2cc[nH]c2c1=O [Example 64, 1-(6-methyl-7-oxo-1H-pyrrolo[2,3-c]pyridine-4-carbonyl)piperidine-4-carbonitrile] | 8
6 | Cn1cc(C(=O)NCc2ccc(S(C)(=O)=O)cc2)c2cc[nH]c2c1=O [Example 92] | 8.4
7 | COC(=O)[C@@H](NC(=O)c1cn(C)c(=O)c2[nH]ccc12)C1CCCCC1 [Example 93] | 2.9
8 | C[C@@H](NC(=O)c1cn(C)c(=O)c2[nH]ccc12)C1CCCCC1 [Example 94] | 3.1
9 | COC[C@@H](NC(=O)c1cn(C)c(=O)c2[nH]ccc12)c1ccccc1 [Example 95] | 11
10 | Cn1cc(C(=O)N[C@H](C(=O)O)c2ccccc2)c2cc[nH]c2c1=O [Example 96] | 5
11 | Cn1cc(C(=O)NCC2CCOCC2)c2cc[nH]c2c1=O [Example 101] | 17
12 | CC(NC(=O)c1cn(C)c(=O)c2[nH]ccc12)c1ccccc1F (stereo not shown) [Example 116] | 4.3
13 | CCOC(C)CNC(=O)c1cn(C)c(=O)c2[nH]ccc12 (stereo not shown) [Example 117] | 4
14 | COc1ccccc1C(C)NC(=O)c1cn(C)c(=O)c2[nH]ccc12 (stereo not shown) [Example 119] | 1.2
15 | CC(C)C(NC(=O)c1cn(C)c(=O)c2[nH]ccc12)c1ccccc1 (stereo not shown) [Example 123] | 11
16 | CC(NC(=O)c1cn(C)c(=O)c2[nH]ccc12)c1ccc(Cl)cc1 (stereo not shown) [Example 126] | 3.2
17 | Cc1ccccc1CCNC(=O)c1cn(C)c(=O)c2[nH]ccc12 [Example 127] | 1.2
18 | Cn1cc(C(=O)NCC2CCCCN2C(=O)OC(C)(C)C)c2cc[nH]c2c1=O (stereo not shown) [Example 132] | 13

Continued, values first:

Row | IC50 [µM] | SMILES
19 | 16 | CC(c1ccccc1)N(C)C(=O)c1cn(C)c(=O)c2[nH]ccc12 (stereo not shown) [Example 128]
20 | 2.1 | CC(C)c1cccc(N2CCC(N(C)C(=O)c3cn(C)c(=O)c4[nH]ccc34)CC2)c1 [Example 179, N-[1-(3-isopropylphenyl)-4-piperidyl]-N,6-dimethyl-7-oxo-1H-pyrrolo[2,3-c]pyridine-4-carboxamide]
21 | 1.1 | CN(CC1CCN(Cc2ccccc2Cl)CC1)C(=O)c1cn(C)c(=O)c2[nH]ccc12 [Example 198]
22 | 3.8 | CN(C(=O)c1cn(C)c(=O)c2[nH]ccc12)C1CCN(Cc2ccccc2C#N)CC1 [Example 215]
23 | 16 | COc1cccc(CN2CCC(N(C)C(=O)c3cn(C)c(=O)c4[nH]ccc34)CC2)c1 [Example 222]
24 | 3.8 | C[C@@H](NC(=O)c1cn(C)c(=O)c2[nH]ccc12)c1ccccc1 [Example 256, (R)-6-methyl-7-oxo-N-(1-phenylethyl)-6,7-dihydro-1Hpyrrolo[2,3-c]pyridine-4-carboxamide]
25 | 0.8 | Cn1cc(C(=O)NCCc2ccccc2)c2cc[nH]c2c1=O [Example 258]
26 | 2.7 | COc1ccc(CNC(=O)c2cn(C)c(=O)c3[nH]ccc23)cc1 [Example 261]
27 | 3.3 | Cn1cc(C(=O)NCc2cccs2)c2cc[nH]c2c1=O [Example 262]
28 | 5.3 | Cn1cc(C(=O)NC2CCCCc3ccccc32)c2cc[nH]c2c1=O (stereo not shown) [Example 265, 6-methyl-7-oxo-N-(6,7,8,9-tetrahydro-5Hbenzo[7]annulen-5-yl)-6,7-dihydro-1H-pyrrolo[2,3-c]pyridine-4-carboxamide]
